In US9944654B2, “Nargenicin compounds and uses thereof as antibacterial agents” (priority 2014, dated 2018):
pIC50: −log10 of the molar value. Values after ≈ are worked out from the molar mass of the structure shown. Read-outs that look alike come from different tables or passages of the source.

Experiments:
[1] = tested on: Streptococcus pneumoniae MB6357 (CL 2883); assay: Nargenicin antibacterial assay (MIC), S. pneumoniae; assay type: cell-based; conditions: Streptococcus pneumoniae, read-out: S. pneumoniae MB2883 (MIC), Isosensitest broth; * = some reduction of growth versus control at […]
[2] = molecular target: T1, S. aureus DnaE (DNA polymerase III α-subunit homolog from Staphylococcus aureus) (Staphylococcus aureus, UniProt Q5HF71); assay: biochemical; assay type: biochemical; conditions: for IC50: read-out: S. aureus DnaE IC50 (converted); for pIC50: S. aureus DnaE IC50
T1 construct: SaDnaE (S. aureus DnaE residues 1-1065); 6xHis (N); made in house; host or cells: E. coli BL21-AI
T1 sequence (Q5HF71 1-1065): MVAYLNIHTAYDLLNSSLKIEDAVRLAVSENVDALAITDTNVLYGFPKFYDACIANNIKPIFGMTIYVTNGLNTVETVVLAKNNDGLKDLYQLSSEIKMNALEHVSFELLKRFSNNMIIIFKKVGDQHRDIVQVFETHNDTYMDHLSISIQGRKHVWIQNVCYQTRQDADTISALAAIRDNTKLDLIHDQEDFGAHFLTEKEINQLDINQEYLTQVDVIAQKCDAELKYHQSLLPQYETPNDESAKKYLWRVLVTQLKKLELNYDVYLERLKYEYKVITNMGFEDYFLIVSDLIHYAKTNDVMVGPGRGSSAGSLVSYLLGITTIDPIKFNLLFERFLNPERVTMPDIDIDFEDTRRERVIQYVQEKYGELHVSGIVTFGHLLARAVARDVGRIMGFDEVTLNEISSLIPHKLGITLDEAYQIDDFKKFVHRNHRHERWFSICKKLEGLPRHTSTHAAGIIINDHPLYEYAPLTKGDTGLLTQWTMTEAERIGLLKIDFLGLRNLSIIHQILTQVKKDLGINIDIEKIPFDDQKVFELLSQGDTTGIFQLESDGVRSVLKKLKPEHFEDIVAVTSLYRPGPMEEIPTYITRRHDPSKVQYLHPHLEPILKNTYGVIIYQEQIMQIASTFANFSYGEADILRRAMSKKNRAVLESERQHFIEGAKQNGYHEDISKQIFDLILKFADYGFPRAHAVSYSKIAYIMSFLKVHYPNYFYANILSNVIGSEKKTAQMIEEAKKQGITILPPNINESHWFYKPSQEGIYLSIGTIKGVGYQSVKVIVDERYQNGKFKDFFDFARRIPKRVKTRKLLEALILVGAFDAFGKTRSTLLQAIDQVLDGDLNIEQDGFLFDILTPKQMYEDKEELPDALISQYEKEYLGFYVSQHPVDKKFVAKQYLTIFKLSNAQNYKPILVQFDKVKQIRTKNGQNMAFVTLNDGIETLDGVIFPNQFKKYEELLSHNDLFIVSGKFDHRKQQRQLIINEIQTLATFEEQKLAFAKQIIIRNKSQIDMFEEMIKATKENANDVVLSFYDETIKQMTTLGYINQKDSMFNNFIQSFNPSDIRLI
Procedure, shortened: (§1)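 His-tagged E. coli DnaE (residues 1-1160, 0.8 μg/ml) or S. aureus DnaE (residues 1-1065, 0.05 μg/ml) incubated 30 min at 30° C. with activated calf thymus DNA, 0.025 mM dATP/dGTP/dCTP and 0.011 mM 3H-dTTP in Tris pH 7.5/Mg acetate. TCA-precipitated labelled DNA counted.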

[3] = molecular target: T2, E. coli DnaE (DNA polymerase III α-subunit from Escherichia coli) (Escherichia coli, UniProt P10443); assay: In vitro DnaE single enzyme assay (E. coli); assay type: biochemical; conditions: for pIC50: E. coli DnaE IC50; for IC50: read-out: E. coli DnaE IC50 (converted)
T2 construct: EcDnaE (E. coli DnaE residues 1-1160); 6xHis (N); made in house; host or cells: E. coli BL21(DE3)
T2 sequence (P10443 whole entry, the tested form may be a part): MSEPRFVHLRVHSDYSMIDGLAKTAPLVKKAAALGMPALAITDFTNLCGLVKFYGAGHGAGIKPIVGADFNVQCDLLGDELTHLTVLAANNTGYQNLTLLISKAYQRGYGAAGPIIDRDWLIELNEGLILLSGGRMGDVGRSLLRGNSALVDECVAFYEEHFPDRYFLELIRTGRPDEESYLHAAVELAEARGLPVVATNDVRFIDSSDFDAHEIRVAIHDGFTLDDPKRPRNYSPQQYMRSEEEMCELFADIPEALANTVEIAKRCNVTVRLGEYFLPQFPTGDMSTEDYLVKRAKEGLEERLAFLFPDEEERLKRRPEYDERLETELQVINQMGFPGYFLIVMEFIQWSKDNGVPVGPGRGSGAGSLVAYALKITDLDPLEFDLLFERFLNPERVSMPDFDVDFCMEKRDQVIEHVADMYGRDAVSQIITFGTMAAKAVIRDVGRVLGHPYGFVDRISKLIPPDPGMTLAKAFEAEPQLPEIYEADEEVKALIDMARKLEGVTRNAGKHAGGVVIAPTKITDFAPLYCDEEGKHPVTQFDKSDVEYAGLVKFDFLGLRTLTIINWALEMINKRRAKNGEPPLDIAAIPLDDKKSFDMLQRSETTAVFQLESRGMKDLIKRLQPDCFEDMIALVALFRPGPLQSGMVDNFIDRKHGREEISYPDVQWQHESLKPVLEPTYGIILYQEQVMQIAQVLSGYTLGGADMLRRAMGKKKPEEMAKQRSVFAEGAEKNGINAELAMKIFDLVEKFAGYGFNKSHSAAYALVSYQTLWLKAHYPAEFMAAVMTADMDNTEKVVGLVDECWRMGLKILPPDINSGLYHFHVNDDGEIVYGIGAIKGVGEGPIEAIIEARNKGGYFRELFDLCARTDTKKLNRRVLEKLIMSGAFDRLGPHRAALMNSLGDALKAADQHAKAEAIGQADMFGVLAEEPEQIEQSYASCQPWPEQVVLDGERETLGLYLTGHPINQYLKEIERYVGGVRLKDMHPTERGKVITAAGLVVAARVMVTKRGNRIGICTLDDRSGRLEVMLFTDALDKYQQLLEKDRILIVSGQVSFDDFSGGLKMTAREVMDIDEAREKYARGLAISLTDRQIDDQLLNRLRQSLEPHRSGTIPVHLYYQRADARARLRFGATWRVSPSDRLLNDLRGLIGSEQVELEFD
Procedure, shortened: as §1

[4] = tested on: Staphylococcus aureus MB6266 (MRSA COL); assay: Nargenicin antibacterial assay (MIC), S. aureus; assay type: cell-based; conditions: Staphylococcus aureus, MRSA, read-out: S. aureus COL (MIC), MHII broth + 50% human serum; * = some reduction of growth versus control at […]
[5] = tested on: Escherichia coli MB5747 (LS 883, tolC); assay: microbe, parasite or virus in culture; assay type: cell-based; conditions: Escherichia coli, read-out: E. coli LS883 tolC (MIC), MHII broth; * = some reduction of growth versus control at […]
[6] = tested on: Pseudomonas aeruginosa MB5890 (CB1101, efflux-deleted); assay: microbe, parasite or virus in culture; assay type: cell-based; conditions: Pseudomonas aeruginosa, read-out: P. aeruginosa MB5890 efflux-del (MIC), MHII broth; * = some reduction of growth versus control at […]

Structure (SMILES) | MIC [1] | IC50 [2] | pIC50 [3] | MIC [4] | MIC [5] | MIC [6] | pIC50 [2] | IC50 [3]
CO[C@H]1C[C@H]2C=C[C@H]3[C@H]4O[C@]2(/C(C)=C/[C@@H](C)[C@@H]([C@@H](C)O)OC1=O)[C@@H]3[C@H](O)C(C)[C@@H]4CO (stereo partly drawn) [Example 163, (3R,4S,7S,8aS,10aR,11R,12R,14R,14aS,14bS,E)-14-hydroxy-4-((R)-1-hydroxyethyl)-12-(hydroxymethyl)-7-methoxy-1,3,13-trimethyl-3,4,8,8a,10a,11,12,13,14,14a-decahydro-11,14b-epoxynaphtho[2,1-e]oxecin-6(7H)-one] | > 128 µg/mL | 0.687 µM | < 3.64 | > 128 µg/mL | 8 µg/mL (≈ 18.3 µM) | 8 µg/mL (≈ 18.3 µM) |  | 
CO[C@H]1C[C@H]2[C@@H](O)C[C@H]3[C@H]4O[C@]2(/C(C)=C/[C@@H](C)[C@@H]([C@@H](C)O)OC1=O)[C@@H]3[C@H](O)[C@@H](C)[C@H]4OC(=O)c1ccc[nH]1 [Example 193] | > 128 µg/mL |  |  | > 128 µg/mL | 64 µg/mL (≈ 120 µM) | > 128 µg/mL | 5.73 | > 187 µM
C=CC[C@H]1[C@@H]2O[C@@]34/C(C)=C/[C@@H](C)[C@@H]([C@@H](C)O)OC(=O)[C@@H](OC)C[C@H]3C=C[C@@H]2[C@H]4C(=O)[C@@H]1C [Example 150, (3R,4S,7S,8aS,10aR,11S,12R,13R,14aR,14bS,E)-12-allyl-4-((R)-1-hydroxyethyl)-7-methoxy-1,3,13-trimethyl-3,4,8,8a,10a,11,12,13-octahydro-11,14b-epoxynaphtho[2,1-e]oxecine-6,14(7H,14aH)-dion] | 64 µg/mL (≈ 144 µM) | 5.62 µM | < 3.95 | > 64 µg/mL | > 64 µg/mL | > 64 µg/mL |  | 
CCCNC(=O)O[C@@H]1[C@@H](C)[C@@H](OC(=O)c2ccc[nH]2)[C@@H]2O[C@@]34/C(C)=C/[C@@H](C)[C@@H]([C@@H](C)OC(=O)NCCC)OC(=O)[C@@H](OC)C[C@H]3C=C[C@@H]2[C@@H]14 [Example 3] | > 128 µg/mL |  |  | > 8 µg/mL | > 8 µg/mL | > 128 µg/mL | < 3.84 | 30.6 µM
CO[C@H]1C[C@H]2C=C[C@H]3[C@H]4O[C@]2(/C(C)=C/[C@@H](C)[C@@H]([C@@H](C)OC(=O)NCc2ccccc2)OC1=O)[C@@H]3[C@H](O)[C@@H](C)[C@H]4OC(=O)c1ccc[nH]1 [Example 10] | > 128 µg/mL |  |  | 8 µg/mL | > 128 µg/mL | > 128 µg/mL | 7.51 | > 154 µM
CO[C@H]1C[C@H]2C=C[C@H]3[C@H]4O[C@]2(/C(C)=C/[C@@H](C)[C@@H]([C@@H](C)O)OC1=O)[C@@H]3[C@H](O)[C@@H](C)[C@H]4OC(N)=O [Example 197] | > 128 µg/mL |  |  | 128 µg/mL | 2 µg/mL (≈ 4.3 µM) | 2 µg/mL (≈ 4.3 µM) | 7.63 | 81.6 µM
CO[C@H]1C[C@H]2C=C[C@H]3[C@H]4O[C@]2(/C(C)=C/[C@@H](C)[C@@H]([C@@H](C)OC(=O)NCc2ccc(O)c(O)c2)OC1=O)[C@@H]3[C@H](O)[C@@H](C)[C@H]4OC(=O)c1ccc[nH]1 [Example 17] | > 128 µg/mL |  |  | 8 µg/mL | 8 µg/mL (≈ 11.8 µM) | > 128 µg/mL | > 8.05 | 22 µM
CO[C@H]1C[C@H]2C=CC3C4[C@H](O)[C@@H](C)[C@@H](OC(=O)c5ccc[nH]5)[C@@H]3O[C@]42/C(C)=C/[C@@H](C)[C@@H]([C@@H](C)OC(=O)C(=O)OCCCN(C)C)OC1=O.O=C(O)C(F)(F)F [Example 206] | > 128 µg/mL |  |  | 4 µg/mL | 4 µg/mL | 64 µg/mL | > 8.12 | 1.91 µM
C=CC[C@H]1OC(=O)[C@@H](OC)C[C@H]2C=C[C@H]3[C@H]4O[C@]2(/C(C)=C/[C@H]1C)[C@@H]3[C@H](O)[C@@H](C)[C@H]4OC(=O)c1ccc[nH]1 [Example 55] | > 64 µg/mL |  |  | 2 µg/mL | 2 µg/mL (≈ 3.91 µM) | 32 µg/mL (≈ 62.5 µM) | > 7.93 | 11.7 µM
CO[C@H]1C[C@H]2C=C[C@H]3[C@H]4O[C@]2(/C(C)=C/[C@@H](C)[C@@H]([C@@H](C)OC(=O)NC(C)C)OC1=O)[C@@H]3[C@H](O)[C@@H](C)[C@H]4OC(=O)c1ccc[nH]1 [Example 9] | 32 µg/mL (≈ 53.3 µM) |  |  | 8 µg/mL | 8 µg/mL (≈ 13.3 µM) | > 128 µg/mL | 7.48 | 49.9 µM
CO[C@H]1C[C@H]2CC(=O)[C@H]3[C@H]4O[C@]2(/C(C)=C/[C@@H](C)[C@@H]([C@@H](C)O)OC1=O)[C@@H]3[C@H](O)[C@@H](C)[C@H]4OC(=O)c1ccc[nH]1 [Example 181] | > 128 µg/mL |  |  | 64 µg/mL | 8 µg/mL (≈ 15 µM) | 32 µg/mL (≈ 60.2 µM) | 7.03 | > 188 µM
CO[C@H]1CC2C=C[C@H]3[C@H]4O[C@]2(/C(C)=C/[C@@H](C)[C@@H](C(C)OC(C)=O)OC1=O)[C@@H]3[C@H](O)[C@@H](C)[C@H]4OC(=O)c1ccc[nH]1 (stereo partly drawn) [Example 57] | 64 µg/mL (≈ 115 µM) |  |  | 8 µg/mL | 4 µg/mL (≈ 7.17 µM) | > 128 µg/mL | > 7.97 | 80.7 µM
C=CC[C@@H]1C(C)[C@@H](O)[C@@H]2[C@H]3C=C[C@@H]4C[C@H](OC)C(=O)O[C@H]([C@@H](C)O)[C@H](C)/C=C(\C)[C@@]24O[C@H]31 (stereo partly drawn) [Example 179, (3R,4S,7S,8aS,10aR,11S,12R,14R,14aS,14bS,E)-12-allyl-14-hydroxy-4-((R)-1-hydroxyethyl)-7-methoxy-1,3,13-trimethyl-3,4,8,8a,10a,11,12,13,14,14a-decahydro-11,14b-epoxynaphtho[2,1-e]oxecin-6(7H)-one] | 64 µg/mL (≈ 143 µM) |  |  | > 64 µg/mL | 64 µg/mL (≈ 143 µM) | > 64 µg/mL | 4.54 | > 112 µM
CO[C@H]1C[C@H]2C=C[C@H]3[C@H]4O[C@]2(/C(C)=C/[C@@H](C)[C@@H]([C@@H](C)OC(=O)N2CCOCC2)OC1=O)[C@@H]3[C@H](O)[C@@H](C)[C@H]4OC(=O)c1ccc[nH]1 [Example 20] | 32 µg/mL (≈ 50.9 µM) |  |  | 8 µg/mL | 8 µg/mL (≈ 12.7 µM) | > 128 µg/mL | > 8.02 | > 159 µM
CO[C@H]1C[C@H]2C=C[C@H]3[C@H]4O[C@]2(/C(C)=C/[C@@H](C)[C@@H]([C@@H](C)O)OC1=O)[C@@H]3C(=O)C(C)[C@H]4C#N (stereo partly drawn) [Example 176, (3R,4 S ,7S ,8aS ,10aR,11R,12S ,14aR,14b S,E)-4-((R)-1-hydroxyethyl)-7-methoxy-1,3,13-trimethyl-6,14-dioxo-3,4,6,7,8,8a,10a,11,12,13,14,14a-dodecahydro-11,14b-epoxynaphtho[2,1-e]oxecine-12-carbonitrile] | > 128 µg/mL | 25.6 µM | < 3.63 | > 128 µg/mL | > 128 µg/mL | > 128 µg/mL |  | 
